Test results: patent US20230138455A1, “METHODS OF DOSING OF APICAL SODIUM-DEPENDENT BILE ACID TRANSPORTER INHIBITORS (ASBTIs)” (Mirum Pharmaceuticals, Inc., priority 2021, published 2023)
Where a name gives a salt, the structure may show the parent alone.

Columns and labels:
[1] = Placebo-controlled trials in patients with ALGS, MRX dosed 30 mins prior to a meal, GI AE rates; format: in vivo, human; conditions: PBO-controlled trials, dosed in the fasted state 30 mins prior to a meal (PBO 44.4%)
Description: (§1) AE data from 3 separate phase 1 clinical studies on MRX and VLX in healthy participants were compiled to assess the impact of ASBTI dosing vs mealtime on GI AEs (Table 1, FIG. 1). In each clinical study, the ASBTI was administered in both a fed and fasted state, and rates of GI AEs were compared. Separately, AE data from placebo (PBO)-controlled trials in patients with ALGS, where MRX was dosed 30 mins prior to a meal, allows a comparison of GI AE rates for MRX vs PBO.

[2] = Phase 1 clinical study, incidence of GI TEAEs after Maralixibat 30 mg in fed versus fasted state; format: in vivo, human; conditions: healthy participants
Description: (§2) FIG. 2 is pie charts showing the proportion of healthy participants who experienced gastrointestinal (GI) treatment-emergent adverse events (AEs) following ASBTI administration at mealtime versus in the fasted state for each of the three studies. […] In each clinical study, the ASBTI was administered in both a fed and fasted state, and rates of GI AEs were compared.

[3] = Phase 1 clinical study, incidence of GI TEAEs after Maralixibat 10 mg in fed versus fasted state; format: in vivo, human; conditions: healthy participants
Description: as §2

[4] = tested on: fecal bile acid (fBA) excretion; experiment: Effect of maralixibat on fecal bile acid (fBA) excretion in healthy dogs, dosing time relative to mealtime; format: in vivo; conditions: for increase in fBA excretion, change compared with pre-treatment value: day 7
Description: FIG. 4 is a bar graph of the effect of maralixibat (MRX) on fecal bile acid (fBA) in dogs: change in fBA excretion from pre-treatment to day 7. The PD impact of ASBTI dosing time to mealtime was investigated in healthy dogs (FIG. 3). […] P<0.01 versus pre-treatment, by one-tail paired t-test. Data are presented as ±SEM (n = 7-8). % = change compared with pre-treatment value. Groups were dosed at the indicated times. Fecal samples were taken 48 hours before treatment initiation and for the last 72 hours of the 7-day treatment period and analyzed for bile acid content.

[5] = Phase 1 clinical study, incidence of GI TEAEs after Volixibat 75 mg in fed versus fasted state; format: in vivo, human; conditions: healthy participants
Description: FIG. 1 depicts study designs, drugs (MRX = maralixibat, VLX = volixibat), doses and at mealtime/fasted timelines for certain embodiments according to the disclosure. *Fasting was started ≥10-12 hours before MRX dosing. ^‡Patients were randomized 1:1 to two cohorts and received sequentially fasted then at mealtime dosing, or at mealtime then fasted dosing.
FIG. 2 is pie charts showing the proportion of healthy participants who experienced gastrointestinal (GI) treatment-emergent adverse events (AEs) following ASBTI administration at mealtime versus in the fasted state for each of the three studies.
as §1

CCCCC1(CCCC)CS(=O)(=O)c2ccc(N(C)C)cc2[C@@H](c2ccc(OCc3ccc(C[N+]45CCN(CC4)CC5)cc3)cc2)[C@H]1O [Maralixibat, maralixibat]
diarrhea reported, frequency in patients [1]: 43.6% | Incidence of GI TEAEs: Abdominal pain, % of participants ([2]; Fasted (n=12)): 8% | Incidence of GI TEAEs: Abdominal pain, number of participants ([2]; Fasted (n=12)): 1 | Incidence of GI TEAEs: Any GI TEAE, % of participants ([2]; Fasted (n=12)): 50% | Incidence of GI TEAEs: Any GI TEAE, number of participants ([2]; Fasted (n=12)): 6 | Incidence of GI TEAEs: Diarrhea, % of participants ([2]; Fasted (n=12)): 50% | Incidence of GI TEAEs: Diarrhea, number of participants ([2]; Fasted (n=12)): 6 | Incidence of GI TEAEs: Abdominal pain, % of participants ([2]; Fed (n=12)): 42% | Incidence of GI TEAEs: Abdominal pain, number of participants ([2]; Fed (n=12)): 5 | Incidence of GI TEAEs: Anorectal discomfort, % of participants ([2]; Fed (n=12)): 8% | Incidence of GI TEAEs: Anorectal discomfort, number of participants ([2]; Fed (n=12)): 1 | Incidence of GI TEAEs: Any GI TEAE, % of participants ([2]; Fed (n=12)): 100% | Incidence of GI TEAEs: Any GI TEAE, number of participants ([2]; Fed (n=12)): 12 | Incidence of GI TEAEs: Diarrhea, % of participants ([2]; Fed (n=12)): 92% | Incidence of GI TEAEs: Diarrhea, number of participants ([2]; Fed (n=12)): 11 | Incidence of GI TEAEs: Nausea, % of participants ([2]; Fed (n=12)): 25% | Incidence of GI TEAEs: Nausea, number of participants ([2]; Fed (n=12)): 3 | Incidence of GI TEAEs: Any GI TEAE, % of participants ([3]; Fasted (n=6)): 0 (0%) | Incidence of GI TEAEs: Any GI TEAE, number of participants ([3]; Fasted (n=6)): 0 (0%) | Incidence of GI TEAEs: Any GI TEAE, % of participants ([3]; Fed (n=6)): 33% | Incidence of GI TEAEs: Any GI TEAE, number of participants ([3]; Fed (n=6)): 2 | Incidence of GI TEAEs: Diarrhea, % of participants ([3]; Fed (n=6)): 17% | Incidence of GI TEAEs: Diarrhea, number of participants ([3]; Fed (n=6)): 1 | Incidence of GI TEAEs: Nausea, % of participants ([3]; Fed (n=6)): 17% | Incidence of GI TEAEs: Nausea, number of participants ([3]; Fed (n=6)): 1 | increase in fBA excretion, change compared with pre-treatment value ([4]; dosing 30 minutes prior to the meal): 231% | increase in fBA excretion, change compared with pre-treatment value ([4]; dosing 4 hours after the meal): 229% | fBA excretion vs pretreatment baseline ([4]; regardless of dosing time relative to the daily meal, p<0.01 by paired t-test): significantly increased fBA excretion

CCCC[C@]1(CC)CS(=O)(=O)c2ccc(N(C)C)cc2[C@@H](c2cccc(NC(=O)N[C@@H]3O[C@H](COS(=O)(=O)O)[C@@H](O)[C@H](OCc4ccccc4)[C@H]3O)c2)[C@H]1O [Volixibat, (2R,3R,4S,5R,6R)-4-benzyloxy-6-{3-[3-((3S,4R,5R)-3-butyl-7-dimethylamino-3-ethyl-4-hydroxy-1,1-dioxo-2,3,4,5-tetrahydro-1H-benzo[b]thiepin-5-yl)-phenyl]-ureido}-3,5-dihydroxy-tetrahydro-pyran-2-ylmethyl) hydrogen sulfate]
Incidence of GI TEAEs: Any GI TEAE, % of participants ([5]; Fasted (n=8)): 0 (0%) | Incidence of GI TEAEs: Any GI TEAE, number of participants ([5]; Fasted (n=8)): 0 (0%) | Incidence of GI TEAEs: Any GI TEAE, % of participants ([5]; Fed (n=8)): 75% | Incidence of GI TEAEs: Any GI TEAE, number of participants ([5]; Fed (n=8)): 6 | Incidence of GI TEAEs: Diarrhea, % of participants ([5]; Fed (n=8)): 50% | Incidence of GI TEAEs: Diarrhea, number of participants ([5]; Fed (n=8)): 4 | Incidence of GI TEAEs: Loose stools, % of participants ([5]; Fed (n=8)): 25% | Incidence of GI TEAEs: Loose stools, number of participants ([5]; Fed (n=8)): 2
